In PMC12749127 (Scientific Reports, 2025):

What was measured:
[1] = tested on: myo-inositol levels; experiment: Cellular myo-inositol levels; type: cell-based; details: 30 mM LiCl or 25 µM ebselen
[2] = tested on: DENV-2; experiment: IMPA1 silencing using siRNA, DENV-2 virus titer in imHC cells; type: cell-based; details: Dengue virus, DENV2, read-out: decrease of inhibitory effect of ebselen in si_IMPA1-silenced cells
[3] = target: T1, recombinant human inositol monophosphatase 1 (IMPA1) (Homo sapiens, UniProt P29218); experiment: In vitro enzymatic assay of IMPA activity; type: biochemical
T1 sequence (P29218 1-277): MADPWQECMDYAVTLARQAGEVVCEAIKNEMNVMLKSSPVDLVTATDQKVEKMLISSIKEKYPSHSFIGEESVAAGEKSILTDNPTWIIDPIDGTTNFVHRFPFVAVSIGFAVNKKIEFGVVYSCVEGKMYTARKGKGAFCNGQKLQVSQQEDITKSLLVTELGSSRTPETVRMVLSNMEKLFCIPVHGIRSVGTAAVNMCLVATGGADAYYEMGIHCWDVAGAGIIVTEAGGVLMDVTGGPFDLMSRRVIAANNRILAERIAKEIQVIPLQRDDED

[4] = tested on: PI(4)P and ZIKV-NS1; experiment: Immunofluorescence of PI; type: cell-based; details: ZIKV-infected imHC cells, MOI 1, 48 hpi, ebselen treatment
[5] = target: recombinant bovine IMPA; details: read-out: inhibition constant (Ki); cited from earlier work
[6] = tested on: IMPA; details: in vitro assays; cited from earlier work
[7] = target: recombinant human IMPA; details: read-out: inhibition constant (Ki); cited from earlier work
[8] = tested on: PI(4)P; experiment: Immunofluorescence of PI; type: cell-based, human; details: imHC cells, 24 hours of treatment

Structure (SMILES): O=c1c2ccccc2[se]n1-c1ccccc1 [Ebselen]
- myo-inositol levels vs untreated control (in words) [1]: significant reduction
- inhibition at 20 µM [2]: ~16%
- IC50 [3]: 950 nM
- PI(4)P levels (in words) [4]: reduction
- ZIKV-NS1 protein expression (in words) [4]: reduction

Structure (SMILES): CC(Oc1ccc(O)cc1)(P(=O)(O)O)P(=O)(O)O [L-690,330]
- Ki [5]: 190 nM
- potency relative to lithium (in words) [6]: approximately a thousand-fold greater potency than lithium
- Ki [7]: 270 nM

Structure (SMILES): [Cl-].[Li+] [LiCl]
- myo-inositol levels vs untreated control (in words) [1]: significant reduction

Structure (SMILES): O[C@H]1[C@H](O)[C@@H](O)[C@H](O)[C@@H](O)[C@H]1O [inositol]
- PI(4)P levels following the addition of inositol (in words) [8]: increased levels
